Publication PMC7571145, “Multistep Synthesis and In Vitro Anticancer Evaluation of 2-Pyrazolyl-Estradiol Derivatives, Pyrazolocoumarin-Estradiol Hybrids and Analogous Compounds” (Molecules, 2020)

Experiments:
[1] = test system: HeLa cells; assay: MTT cytotoxicity assay on HeLa cells; type: cell-based; settings: 2.5 µM, 72 h, mean±SD, untreated control about 100
Description: (§1) Cytotoxicity screens were performed to assess the in vitro anticancer activity of the synthesized A-ring-linked 2-pyrazoles of estradiol, the pyrazolocoumarin-estradiol hybrids, and their structurally simplified non-steroidal analogs on various cancerous cell lines such as MCF-7, PC-3, DU145, and HeLa and on non-cancerous MRC-5 fibroblasts. The 2-acetyl-phenol starting materials (4, 5, and 15) were also included for comparison. All compounds were applied in 2.5 µM concentration for 72 h. The obtained cell viability data were used to construct a heat map (Figure 2) in order to select compounds that exert cancer cell line-specific cytotoxicity. […] Furthermore, some compounds discriminated only DU145 cells and could eliminate these type of prostate cancer cells.
(§2) To understand structure-function relationships, we also included the structural analogs of the selected compounds, namely 7a (C-17 acetate of 8a), 8c (C-17 OH counterpart of 7c), and 9a (steroidal pair of 19a) into subsequent analyses. […] For this, compounds were applied on MCF-7, PC-3, DU145, and HeLa and on non-cancerous MRC-5 fibroblasts in various concentrations for 72 h or were treated with cisplatin at different concentrations. On the viability data, dose–response curves were fitted (Figure S1) and IC50 values were calculated accordingly (Table 3). In agreement with the primary cytotoxicity screen (Table S1), the obtained IC50 concentrations clearly indicated which compound was selectively effective on one or more cancer cell lines. […] Typically, acetylated steroidal pyrazoles were less favorable than deacetylated counterparts due to reduced cancer cell selectivity (7c, 10a).
(§3) To evaluate the in vitro pharmacological effects of the synthesized molecules, each compound was first dissolved in cell culture grade DMSO (Sigma) to a final concentration of 10 mM. Using MTT colorimetric assay, the cytotoxicity of these compounds was evaluated on cancerous (MCF-7, HeLa, DU145, PC-3) and non-cancerous (MRC-5) cell lines. Briefly, 5000 cells/well of each cell line were seeded in 96-well plates and were left to grow overnight in a 5% CO2 atmosphere at 37 °C. On the next day, cells were treated with each derivative separately, in case of the primary screen, or only with the selected compounds upon IC50 determination. Cells were incubated with the test compounds for 72 h in a 5% CO2 atmosphere at 37 °C. End point was measured by incubating cells for 1 h with 0.5 mg/mL of MTT reagent (Serva) dissolved in serum free culture medium. The formazan crystals formed by metabolically active cells were later dissolved in DMSO. Optical density of the obtained solutions was measured at 570 nm using a Synergy HTX plate reader. […] The analysis and conclusions were made based on three independent experiments. Normalized data were analyzed and the heat map was constructed using GraphPad Prism 7 software.

[2] = test system: PC-3 cells; assay: MTT cytotoxicity assay on PC-3 prostate cancer cells; type: cell-based; settings: 2.5 µM, 72 h, mean±SD, untreated control about 100
Description: as §1, §2, §3

[3] = test system: MCF-7 cells; assay: MTT cytotoxicity assay on MCF-7 cells; type: cell-based; settings: 2.5 µM, 72 h, mean±SD, untreated control about 100
Description: as §1, §2, §3

[4] = test system: MRC-5 fibroblasts; assay: MTT cytotoxicity assay on non-cancerous MRC-5 fibroblasts; type: cell-based; settings: 2.5 µM, 72 h, MTT, mean±SD, untreated control about 100
Description: as §1, §2, §3

[5] = test system: DU145 cells; assay: MTT cytotoxicity assay on DU145 prostate cancer cells; type: cell-based; settings: 2.5 µM, 72 h, mean±SD, untreated control about 100
Description: as §1, §2, §3

melting point	Structure (SMILES)	primary growth inhibitory screen, cell viability, HeLa [1]	primary growth inhibitory screen, cell viability, PC-3 [2]	primary growth inhibitory screen, cell viability, MCF-7 [3]	primary growth inhibitory screen, cell viability, MRC-5 [4]	primary growth inhibitory screen, cell viability, DU145 [5]
224 to 226 °C	Cc1ccc(-n2cc3c(=O)oc4cc5c(cc4c3n2)CCCC5)cc1 [Compound 19b, 2-(4′-Tolyl)-7,8,9,10-tetrahydrobenzo[6,7]chromeno[4,3-c]pyrazol-4(2H)-one]	≥ 100±2.4	84.1±5.2	≥ 100±4.8	≥ 100±0	100.6±6.3
291 to 293 °C	O=c1oc2cc3c(cc2c2nn(-c4ccc(Cl)cc4)cc12)CCCC3 [Compound 19c, 2-(4′-Chlorophenyl)-7,8,9,10-tetrahydrobenzo[6,7]chromeno[4,3-c]pyrazol-4(2H)-one]	≥ 100±8.3	79.1±7.8	≥ 100±3.8	≥ 100±2.5	≥ 100.6±10.8
